This is an account of results in ChEMBL document CHEMBL4052668, “Synthesis and evaluation of symmetric acyclic nucleoside bisphosphonates as inhibitors of the Plasmodium falciparum, Plasmodium vivax and human 6-oxopurine phosphoribosyltransferases and the antimalarial activity of their prodrugs” (Bioorg Med Chem, 2017).

Data set [1] deals with Plasmodium falciparum. Put plainly: Antimalarial activity against Plasmodium falciparum D6 trophozoites assessed as reduction in [3H]-hypoxanthine incorporation preincubated for 96 hrs followed by [3H]-hypoxanthine addition at 48 hrs post start of experiment. In kind it is functional.
A short description of data set [2]: Cytotoxicity against human A549 cells after 4 days by coulter counting method. In kind it is cell-based.
Data set [3] has as its system Plasmodium falciparum. Put plainly: Antimalarial activity against chloroquine/pyrimethamine-resistant Plasmodium falciparum W2 trophozoites assessed as reduction in [3H]-hypoxanthine incorporation preincubated for 96 hrs followed by [3H]-hypoxanthine addition at 48 hrs post start of experiment. It counts as functional.
Data set [4] is described as follows: Stability of the compound in pH 7 solution. In kind it is physicochemical. To be noted: buffer.
The test system of data set [5] is Plasmodium vivax. Briefly: Inhibition of N-terminal hexa-histidine-tagged Plasmodium vivax HGPRT at 29 uM using PRib-PP as substrate in presence of guanine by spectrophotometric method.
Data set [6] deals with Plasmodium falciparum. Put plainly: Inhibition of Plasmodium falciparum HGXPRT at 29 uM using PRib-PP as substrate in presence of guanine by spectrophotometric method.
Data set [7] deals with T1, Hypoxanthine-guanine phosphoribosyltransferase (Homo sapiens, UniProt P00492).
T1 sequence (P00492 whole entry): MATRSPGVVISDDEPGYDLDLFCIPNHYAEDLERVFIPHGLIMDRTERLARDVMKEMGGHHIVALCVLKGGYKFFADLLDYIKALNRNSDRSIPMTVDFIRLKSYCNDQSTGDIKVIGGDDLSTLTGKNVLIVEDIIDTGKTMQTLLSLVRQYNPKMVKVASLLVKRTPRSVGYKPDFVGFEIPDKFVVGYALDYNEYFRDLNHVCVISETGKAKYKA
Put plainly: Inhibition of N-terminal hexa-histidine-tagged human HGPRT using PRib-PP as substrate in presence of guanine by Hanes plot analysis.

Data set [8] has as its system Plasmodium vivax. Put plainly: Inhibition of N-terminal hexa-histidine-tagged Plasmodium vivax HGPRT at 31 uM using PRib-PP as substrate in presence of guanine by spectrophotometric method.
In data set [9] the test system is Plasmodium falciparum. Briefly: Inhibition of Plasmodium falciparum HGXPRT at 31 uM using PRib-PP as substrate in presence of guanine by spectrophotometric method.
Data set [10] can be described thus: Inhibition of N-terminal hexa-histidine-tagged Plasmodium vivax HGPRT using PRib-PP as substrate in presence of guanine by Hanes plot analysis.
Data set [11] concerns the target T2, Hypoxanthine-guanine phosphoribosyltransferase (Homo sapiens) (UniProt P00492).
T2 sequence (whole entry): T1 sequence (P00492 whole entry)
Briefly: Inhibition of N-terminal hexa-histidine-tagged human HGPRT at 35 uM using PRib-PP as substrate in presence of guanine by spectrophotometric analysis.

In data set [12] the test system is Plasmodium falciparum. Put plainly: Inhibition of Plasmodium falciparum HGXPRT at 35 uM using PRib-PP as substrate in presence of guanine by spectrophotometric method.
The test system of data set [13] is Plasmodium vivax. Put plainly: Inhibition of N-terminal hexa-histidine-tagged Plasmodium vivax HGPRT at 35 uM using PRib-PP as substrate in presence of guanine by spectrophotometric method.
For data set [14], the system named is Plasmodium falciparum. Briefly: Inhibition of Plasmodium falciparum HGXPRT at 32 uM using PRib-PP as substrate in presence of guanine by spectrophotometric method.
The test system of data set [15] is Plasmodium falciparum. Briefly: Inhibition of Plasmodium falciparum HGXPRT at 46 uM using PRib-PP as substrate in presence of guanine by spectrophotometric method.
Data set [16] is described as follows: Inhibition of Plasmodium falciparum HGXPRT using PRib-PP as substrate in presence of guanine by Hanes plot analysis.
The subject of data set [17] is Plasmodium falciparum. Briefly: Inhibition of Plasmodium falciparum HGXPRT at 42 uM using PRib-PP as substrate in presence of guanine by spectrophotometric method.
Data set [18] concerns Plasmodium vivax. Put plainly: Inhibition of N-terminal hexa-histidine-tagged Plasmodium vivax HGPRT at 42 uM using PRib-PP as substrate in presence of guanine by spectrophotometric method.
Data set [19] has as its target T2, Hypoxanthine-guanine phosphoribosyltransferase (Homo sapiens). Put plainly: Inhibition of N-terminal hexa-histidine-tagged human HGPRT at 42 uM using PRib-PP as substrate in presence of guanine by spectrophotometric analysis.

Active and inactive are the calls of the source. No cut-off for these calls is given here.

As usually defined, the IC50 is the concentration at which inhibition is half-maximal. Broadly, the CC50 is the concentration giving 50% cytotoxicity. A higher CC50 goes with better tolerance by the cells. Regarding `CCOC(=O)[C@H](Cc1ccccc1)NP(=O)(CCOCC(COCCP(=O)(N[C@@H](Cc1ccccc1)C(=O)OCC)N[C@@H](Cc1ccccc1)C(=O)OCC)n1cnc2c(=O)[nH]c(N)nc21)N[C@@H](Cc1ccccc1)C(=O)OCC`, the 50% inhibitory concentration (IC50) in the data set on Plasmodium falciparum [1] worked out at 10 µM; with Plasmodium falciparum [3], 9.4 µM. In data set [2], the CC50 at 96 h was greater than 300 µM. Moreover, the Stability result in data set [4] was “Stable”.
Turning to `CCOC(=O)[C@H](Cc1ccccc1)NP(=O)(CCOCC(COCCP(=O)(N[C@@H](Cc1ccccc1)C(=O)OCC)N[C@@H](Cc1ccccc1)C(=O)OCC)n1c(Br)nc2c(=O)[nH]c(N)nc21)N[C@@H](Cc1ccccc1)C(=O)OCC`, the figures for the half-inhibitory concentration (IC50) in the data set with Plasmodium falciparum [1] and in the data set with Plasmodium falciparum [3] were 4.4 µM and 7 µM, respectively.
As to `CCOC(=O)[C@H](Cc1ccccc1)NP(=O)(CCOCC(COCCP(=O)(N[C@@H](Cc1ccccc1)C(=O)OCC)N[C@@H](Cc1ccccc1)C(=O)OCC)n1ccc2c(=O)[nH]c(N)nc21)N[C@@H](Cc1ccccc1)C(=O)OCC`, the figures for the IC50 in the data set on Plasmodium falciparum [1] and with Plasmodium falciparum [3] were 0.8 µM and 1.1 µM, respectively. The CC50 at 96 h in data set [2] is greater than 300 µM. Moreover, the Stability entry in data set [4] was “Stable”.
`CCOC(=O)[C@H](Cc1ccccc1)NP(=O)(CCOCC(COCCP(=O)(N[C@@H](Cc1ccccc1)C(=O)OCC)N[C@@H](Cc1ccccc1)C(=O)OCC)Cn1ccc2c(=O)[nH]c(N)nc21)N[C@@H](Cc1ccccc1)C(=O)OCC`: the IC50 in the data set with Plasmodium falciparum [1] was determined as 0.8 µM; with Plasmodium falciparum [3], 2.1 µM. Further, the half-maximal cytotoxic concentration (CC50) at 96 h in data set [2] worked out at 95 µM. In addition, the Stability entry in data set [4] is given as “Stable”.
As usually defined, the Ki is a measure of affinity in units of concentration, obtained from inhibition or displacement. Consider `O=c1[nH]cnc2c1nc(Br)n2CC(COCCP(=O)(O)O)COCCP(=O)(O)O`, for which the inhibition entry in the data set on Plasmodium vivax [5] and with Plasmodium falciparum [6] was “inactive” in each case. For the same compound, the inhibition constant Ki in data set [7] was 9.7 µM.
Take `CCOC(=O)[C@H](Cc1ccccc1)NP(=O)(CCOCC(COCCP(=O)(N[C@@H](Cc1ccccc1)C(=O)OCC)N[C@@H](Cc1ccccc1)C(=O)OCC)Cn1c(Br)nc2c(=O)[nH]c(N)nc21)N[C@@H](Cc1ccccc1)C(=O)OCC`: the IC50 with Plasmodium falciparum [1] came out at 22.1 µM; with Plasmodium falciparum [3] it was 21.3 µM. The compound also yielded a CC50 at 96 h in data set [2] of 94 µM.
Consider `O=c1[nH]cnc2c1ccn2CC(COCCP(=O)(O)O)COCCP(=O)(O)O`, for which the inhibition entry in the data set with Plasmodium vivax [8] and in the data set on Plasmodium falciparum [9] was “inactive” in each case. The Ki in data set [7] stood at 17 µM.
For the compound `CCOC(=O)[C@H](Cc1ccccc1)NP(=O)(CCOCC(COCCP(=O)(N[C@@H](Cc1ccccc1)C(=O)OCC)N[C@@H](Cc1ccccc1)C(=O)OCC)Cn1ccc2c(=O)[nH]cnc21)N[C@@H](Cc1ccccc1)C(=O)OCC`, in [2], it took 23 µM to reach half-maximal cytotoxicity (CC50 at 96 h). Besides, the Stability result in data set [4] is “Stable”.
The corresponding values for `CCOC(=O)[C@H](Cc1ccccc1)NP(=O)(CCOCC(COCCP(=O)(N[C@@H](Cc1ccccc1)C(=O)OCC)N[C@@H](Cc1ccccc1)C(=O)OCC)n1ccc2c(=O)[nH]cnc21)N[C@@H](Cc1ccccc1)C(=O)OCC` are 130 µM and “Stable”.
With `Nc1nc2c(ccn2CC(COCCP(=O)(O)O)COCCP(=O)(O)O)c(=O)[nH]1`, the Ki amounted to 1.5 µM in data set [10] and 1 µM in data set [7].
Regarding `CCOC(=O)[C@H](Cc1ccccc1)NP(=O)(CCOCC(COCCP(=O)(N[C@@H](Cc1ccccc1)C(=O)OCC)N[C@@H](Cc1ccccc1)C(=O)OCC)Cn1cnc2c(=O)[nH]cnc21)N[C@@H](Cc1ccccc1)C(=O)OCC`, the 50% inhibitory concentration (IC50) with Plasmodium falciparum [1] amounted to 1.7 µM; in the data set on Plasmodium falciparum [3], 4.6 µM. This compound also displayed a CC50 at 96 h in data set [2] of 66 µM. Moreover, the Stability entry in data set [4] is listed as “Stable”.
Consider `Nc1nc2c(ncn2CC(COCCP(=O)(O)O)COCCP(=O)(O)O)c(=O)[nH]1`, for which the inhibition constant Ki in data set [10] was found to be 0.16 µM; in data set [7], 0.1 µM.
Consider `O=c1[nH]cnc2c1nc(Br)n2C(COCCP(=O)(O)O)COCCP(=O)(O)O`, for which the inhibition result (in data set [11]; with Plasmodium falciparum [12]; in the data set on Plasmodium vivax [13]) was “inactive” each time.
For the compound `Nc1nc2c(nc(Br)n2CC(COCCP(=O)(O)O)COCCP(=O)(O)O)c(=O)[nH]1`, the inhibition constant (Ki) is 1.6 µM in data set [10] and 0.25 µM in data set [7]. The inhibition entry in the data set with Plasmodium falciparum [14] was “inactive”.
Take `O=c1[nH]cnc2c1ncn2CC(COCCP(=O)(O)O)COCCP(=O)(O)O`: the figures for the inhibitory constant (Ki) in data set [10] and in [7] were 6 µM and 1.5 µM, respectively. The inhibition entry in the data set with Plasmodium falciparum [15] is “inactive”.
Turning to `Nc1nc2c(nc(Br)n2CC(COCP(=O)(O)O)COCP(=O)(O)O)c(=O)[nH]1`, the Ki was 89 µM in data set [10], 4 µM in data set [7] and 1 µM in [16].
In [2], `CCOC(=O)[C@H](Cc1ccccc1)NP(=O)(CCOCC(COCCP(=O)(N[C@@H](Cc1ccccc1)C(=O)OCC)N[C@@H](Cc1ccccc1)C(=O)OCC)n1c(Br)nc2c(=O)[nH]cnc21)N[C@@H](Cc1ccccc1)C(=O)OCC` had a CC50 at 96 h of 278 µM.
As to `Nc1nc2c(ncn2C(COCCP(=O)(O)O)COCCP(=O)(O)O)c(=O)[nH]1`, the inhibition constant (Ki) in data set [10] was determined as 21 µM; in data set [7], 0.3 µM; in data set [16], 0.2 µM.
The corresponding values for `Nc1nc2c(ccn2C(COCCP(=O)(O)O)COCCP(=O)(O)O)c(=O)[nH]1` are 49 µM, 5 µM and 6 µM.
For `O=c1[nH]cnc2c1ccn2C(COCCP(=O)(O)O)COCCP(=O)(O)O`, the inhibition entry (with Plasmodium falciparum [17]; with Plasmodium vivax [18]; in data set [19]) was “inactive” in each case.
With `CCOC(=O)[C@H](Cc1ccccc1)NP(=O)(CCOCC(COCCP(=O)(N[C@@H](Cc1ccccc1)C(=O)OCC)N[C@@H](Cc1ccccc1)C(=O)OCC)n1cnc2c(=O)[nH]cnc21)N[C@@H](Cc1ccccc1)C(=O)OCC`, the half-maximal inhibitory concentration (IC50) with Plasmodium falciparum [1] was determined as 1.5 µM; in the data set with Plasmodium falciparum [3], 1.7 µM. In [2], this compound displayed a 50% cytotoxic concentration (CC50) at 96 h greater than 300 µM. In addition, the Stability entry in [4] is reported as “Stable”.
With `CCOC(=O)[C@H](Cc1ccccc1)NP(=O)(CCOCC(COCCP(=O)(N[C@@H](Cc1ccccc1)C(=O)OCC)N[C@@H](Cc1ccccc1)C(=O)OCC)Cn1c(Br)nc2c(=O)[nH]cnc21)N[C@@H](Cc1ccccc1)C(=O)OCC`, the cytotoxic concentration (CC50) at 96 h in data set [2] was determined as 43 µM.
For `CCOC(=O)[C@H](Cc1ccccc1)NP(=O)(CCOCC(COCCP(=O)(N[C@@H](Cc1ccccc1)C(=O)OCC)N[C@@H](Cc1ccccc1)C(=O)OCC)Cn1cnc2c(=O)[nH]c(N)nc21)N[C@@H](Cc1ccccc1)C(=O)OCC`, the IC50 with Plasmodium falciparum [1] turned out to be 5.1 µM; in the data set on Plasmodium falciparum [3], 6.9 µM. Moreover, in data set [2], the 50% cytotoxic concentration (CC50) at 96 h was greater than 300 µM. In addition, in data set [4], the Stability entry is reported as “Stable”.
Take `O=c1[nH]cnc2c1ncn2C(COCCP(=O)(O)O)COCCP(=O)(O)O`: the inhibitory constant (Ki) in data set [10] came out at 21 µM; in data set [7] it was 3 µM; in [16], 0.7 µM.
For `Nc1nc2c(nc(Br)n2C(COCCP(=O)(O)O)COCCP(=O)(O)O)c(=O)[nH]1`, the Ki in data set [10] stood at 153 µM; in data set [7] it was 19 µM; in data set [16], 4 µM.
